Measurements taken from patent publication US12428388B2, “Nonionic polyether surfactants” (Cepheid, priority 2020, dated 2025).

Assays:
[1] = Stability in 2M NaOH (visual observation); assay type: physicochemical; settings: 1% surfactant in 2M NaOH, room temperature
Description: In the following experiments, the properties of exemplary reduced polysorbates were compared with the starting materials purchased from Sigma: Tween 20® BioXtra, Cat No P7949 and Tween 80® BioXtra, Cat No P8074
The following solutions are prepared in two vials: (A) 1% Tween 20® in 2M NaOH; (B) 1% Compound 2 in 2M NaOH. Both solutions were left at room temperature and the changes were observed visually.
Similarly, hydrolytic stability of (A) Tween 80® and (B) Compound 2 were compared.

[2] = molecular target: T1, Lipase from porcine pancreas (Sus scrofa, UniProt P00591); test: Resistance to Lipase Hydrolysis; assay type: in vitro ADME; settings: 1% surfactant in 10 mM tris-HCl (pH 8.0), CaCl2, Lipase from porcine pancreas (Sigma L3126), room temperature
T1 construct: Lipase from porcine pancreas (Sigma L3126); purchased Sigma L3126; host or cells: porcine pancreas (tissue-derived)
T1 sequence (P00591 1-450): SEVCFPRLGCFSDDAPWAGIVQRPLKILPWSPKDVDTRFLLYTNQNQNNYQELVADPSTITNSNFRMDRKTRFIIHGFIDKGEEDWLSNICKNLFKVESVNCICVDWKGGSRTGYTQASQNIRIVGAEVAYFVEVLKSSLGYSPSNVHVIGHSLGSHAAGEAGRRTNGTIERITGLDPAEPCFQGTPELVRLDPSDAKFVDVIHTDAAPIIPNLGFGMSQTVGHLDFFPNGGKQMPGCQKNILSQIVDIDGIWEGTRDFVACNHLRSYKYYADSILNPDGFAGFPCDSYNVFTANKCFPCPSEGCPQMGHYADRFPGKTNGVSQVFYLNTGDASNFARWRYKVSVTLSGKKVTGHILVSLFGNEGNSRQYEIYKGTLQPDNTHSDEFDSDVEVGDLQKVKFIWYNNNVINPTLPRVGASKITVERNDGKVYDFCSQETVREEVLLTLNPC
Description: (§1) Stability of surfactants in the presence of hydrolyzing enzymes was tested according to a simplified literature procedure (Francisco J. Plou, Manuel Ferrer, Oscar M. Nuero, Maria V. Calvo, Miguel Alcalde, Fuensanta Reyes, Antonio Ballesteros. Analysis of Tween 80 as an esterase/lipase substrate for lipolytic activity assay. Biotechnology Techniques, Vol 12, No 3, March 1998, pp. 183-186.)
B1. Resistance to Lipase Hydrolysis
The following solutions are prepared in two vials: (A) to 20 mL of 1% Tween 20® in 10 mM tris-HCl (pH 8.0) is added 1 mL of 5% CaCl2) followed by 2 mL of 2 mg/mL solution of Lipase from porcine pancreas (Sigma L3126) in 10 μM tris-HCl (pH 8.0); (B) to 20 mL of 1% Compound 1 in 10 mM tris-HCl (pH 8.0) is added 1 mL of 5% CaCl2) followed by 2 mL of 2 mg/mL solution of Lipase from porcine pancreas (Sigma L3126) in 10 μM tris-HCl (pH 8.0). Both solutions were left at room temperature, and changes were observed visually.

[3] = test system: Esterase from porcine liver; test: Resistance to Esterase Hydrolysis; assay type: in vitro ADME; settings: 1% surfactant in 10 mM tris-HCl (pH 8.0), CaCl2, Esterase from porcine liver (Sigma E2884), room temperature
Description: as §1
B2. Resistance to Esterase Hydrolysis
The following solutions were prepared in two vials: (A) to 20 mL of 1% Tween 20® in 10 mM tris-HCl (pH 8.0) is added 1 mL of 5% CaCl2) followed by 40 μL of 100 UN/mL solution of Esterase from porcine liver (Sigma E2884) in 10 μM tris-HCl (pH 8.0); (B) to 20 mL of 1% Compound 1 in 10 mM tris-HCl (pH 8.0) is added 1 mL of 5% CaCl2 followed by 40 μL of 100 UN/mL solution of Esterase from porcine liver in 10 μM tris-HCl (pH 8.0). Both solutions were left at room temperature and changes were observed visually.

Row | Substance | hydrolytic stability in 2M NaOH, changes of the solution observed visually [1] | stability to lipase hydrolysis, changes of the solution observed visually [2] | stability to esterase hydrolysis, changes of the solution observed visually [3]
1 | polyoxyethylene sorbitan monolaurate [Tween 20®] | became non-transparent within one hour and turned into stiff gel the next day | became cloudy within one hour and became non-transparent the next day | became cloudy within one hour and became non-transparent the next day
2 | polyoxyethylene sorbitan monooleate [Tween 80®] | became cloudy within one hour and turned into a stiff gel the next day | – | –
